These compounds were tested on monkey intraocular pressure (assay: Intraocular pressure reduction enhancing action in monkey (Test Example 8)). Settings: cynomolgus monkey, 30 μL latanoprost (Xalatan) then 30 μL 19-1 compound aqueous solution, compared with single drug groups.
Type: in vivo
Procedure: As for the test compound used for combination use, similar effect can be obtained also with the compounds of the present invention represented with the example numbers mentioned in Test Example 3. The test is performed by using cynomolgus monkeys sufficiently naturalized for the operation of fixation on a monkey chair and intraocular pressure measurement.
As the test compound, the 19-1 compound was dissolved in physiological saline, and the solution is neutralized by addition of sodium hydroxide (pH 7.0 to 8.0) to prepare a 0.01 weight % aqueous solution (19-1 compound aqueous solution). As a drug for combination use, latanoprost (trade name: Xalatan, Pfizer) is used as the marketed formulation per se. The test aqueous solution or the drug for combination use is instilled to the left eye, and the right eye is not treated (control eye). […] After initial intraocular pressure values of the monkeys are measured for each group, 30 μL of physiological saline is instilled to the control group, single drug group 1, and single drug group 2, and latanoprost is instilled in the same volume to the combination use group. […] Then, the intraocular pressure is measured over time for each group.

SMILES	Intraocular pressure reducing action, combination use group
N[C@H]1CCN(S(=O)(=O)c2cccc3cncc(Cl)c23)C1 [Example 19-1, (S)-3-Amino-1-(4-chloro-5-isoquinolinesulfonyl)pyrrolidine]	exceeding those of both the single drug group 1 and single drug group 2

Same assay, conditions: cynomolgus monkey, 30 μL of 0.01 weight % aqueous solution, compared with control group

SMILES	Intraocular pressure reducing action, single drug group 1
N[C@H]1CCN(S(=O)(=O)c2cccc3cncc(Cl)c23)C1 [Example 19-1, (S)-3-Amino-1-(4-chloro-5-isoquinolinesulfonyl)pyrrolidine]	exceeding that of the control group

What follows are compounds tested on rabbit normal intraocular pressure (assay: Intraocular pressure reducing action (Test Example 3)). Settings: Oryctolagus cuniculus, topical; 3 mM aqueous solution, 50 μl to the left eye; max difference of left and right eyes at 2, 4 and 6 hours relative to value before administration; read-out: Intraocular pressure reducing degree.
Type: in vivo, Japanese white rabbit
Procedure: A Japanese white rabbit having a body weight of about 2 kg was placed in a positioner and naturalized for one week before the experiment. An ophthalmologic local anesthesant (Benoxil) was administered to both eyes, and then intraocular pressure was measured by using a tonometer (Classic 30, Solan). A 3 mM aqueous solution of a test compound was administered in a volume of 50 μl to the left eye, and the right eye was not treated (control eye). The intraocular pressure values were measured for the left and right eyes immediately before, and 2, 4 and 6 hours after the administration of the aqueous solution of the test compound, and the difference of the measured values for the left and right eyes was considered an intraocular pressure reduction value of the test medicament at each measurement time. The largest difference of the values for the left and right eyes among the measured values at the measurement times (after 2, 4 and 6 hours) was considered the maximum intraocular pressure reduction value (max ? IOP) of each test medicament. The intraocular pressure reducing degree representing the intraocular pressure reducing action of each test medicament was calculated according to the following formula. Since rabbits show significant daily variation of intraocular pressure, daily variation is added when change of intraocular pressure is measured over time, and the intraocular pressure reducing action may be overestimated. Therefore, we used this calculation method of intraocular pressure reduction value in order to minimize the influence of the variation. Intraocular pressure reducing degree(%)=(max ? IOP/Intraocular pressure value immediately before administration)×100

SMILES	inhibition in vivo at 3000 µM
CN[C@H]1CCN(S(=O)(=O)c2cccc3cncc(Br)c23)C1 [Example 1-3, (S)-1-(4-Bromo-5-isoquinolinesulfonyl)-3-(methylamino)pyrrolidine]	≥ 20%
COc1ccc(CN[C@H]2CCN(S(=O)(=O)c3cccc4cncc(Br)c34)C2)cc1 [Example 1-7]	5 to 10%
Cc1nc(CNC2CCN(S(=O)(=O)c3cccc4cncc(Br)c34)C2)c[nH]1 (stereo not drawn) [Example 1-19]	5 to 10%
Cn1cccc1CNC1CCN(S(=O)(=O)c2cccc3cncc(Br)c23)C1 (stereo not drawn) [Example 1-20]	10 to 20%
NCCNC1CCN(S(=O)(=O)c2cccc3cncc(Br)c23)C1 (stereo not drawn) [Example 1-31]	10 to 20%
CN[C@H]1CCN(S(=O)(=O)c2cccc3cncc(C)c23)C1 [Example 8-3]	≥ 20%
Cc1cncc2cccc(S(=O)(=O)N3CCC(NC(C)C)C3)c12 (stereo not drawn) [Example 8-27]	10 to 20%
Cc1cncc2cccc(S(=O)(=O)N3CCC(NC4CCC4)C3)c12 (stereo not drawn) [Example 8-28]	5 to 10%
Cc1cncc2cccc(S(=O)(=O)N3CCC(NC4CCCC4)C3)c12 (stereo not drawn) [Example 8-29]	5 to 10%
Cc1cncc2cccc(S(=O)(=O)N3CCC(NC4CCCCC4)C3)c12 (stereo not drawn) [Example 8-30]	5 to 10%
Cc1cncc2cccc(S(=O)(=O)N3CCC(NC4CCOCC4)C3)c12 (stereo not drawn) [Example 8-31]	10 to 20%
Cc1cncc2cccc(S(=O)(=O)N3CCC(NCCN)C3)c12 (stereo not drawn) [Example 8-32]	5 to 10%
C=CCNC1CCN(S(=O)(=O)c2cccc3cncc(C)c23)C1 (stereo not drawn) [Example 8-34]	5 to 10%
Cc1cncc2cccc(S(=O)(=O)N3CCC(NCCc4ccccc4)C3)c12 (stereo not drawn) [Example 8-37]	5 to 10%
C#Cc1cncc2cccc(S(=O)(=O)N3CC[C@H](NCc4ccco4)C3)c12 [Example 10-14]	5 to 10%
C#Cc1cncc2cccc(S(=O)(=O)N3CC[C@H](NC4CCOCC4)C3)c12 [Example 10-31]	≥ 20%
CN[C@H]1CCN(S(=O)(=O)c2cccc3cncc(Cl)c23)C1 [Example 19-3, (S)-1-(4-Chloro-5-isoquinolinesulfonyl)-3-(methylamino)pyrrolidine]	≥ 20%
CCN[C@H]1CCN(S(=O)(=O)c2cccc3cncc(Cl)c23)C1 [Example 19-4]	≥ 20%
O=S(=O)(c1cccc2cncc(Cl)c12)N1CC[C@H](NCc2ccco2)C1 [Example 19-14]	5 to 10%
O=S(=O)(c1cccc2cncc(Cl)c12)N1CC[C@H](NCc2cccs2)C1 [Example 19-17]	5 to 10%
Cn1cccc1CN[C@H]1CCN(S(=O)(=O)c2cccc3cncc(Cl)c23)C1 [Example 19-21]	≥ 20%
O=S(=O)(c1cccc2cncc(Cl)c12)N1CC[C@H](NC2CCOCC2)C1 [Example 19-31]	≥ 20%

From patent publication US8415372B2, “Sulfonamide compound” (Asahi Kasei Pharma Corporation, priority 2007, dated 2013)
